Experiments:
[1] = Solubility of free base in buffers of varying pH; type: physicochemical
Protocol: The solubility of a typical API (i.e., Compound 2 as disclosed herein) in free base form was evaluated in buffers of varying pH.

[2] = Stability of HCl salt at different temperatures for 8 hours; type: physicochemical
Protocol: The stability of a Compound 2 HCl salt at different temperatures for 8 hours is shown below. The initial purity at TO is 96.5%. […] Similar observation was also made for several other compounds of the invention.

Row | Ave. Conc. ([1]; 0.01N HCl) [mg/mL] | Ave. Conc. ([1]; Water) [mg/mL] | Ave. Conc. ([1]; pH 2.0) [mg/mL] | Ave. Conc. ([1]; pH 3.0) [mg/mL] | Ave. Conc. ([1]; pH 4.5) [mg/mL] | Ave. Conc. ([1]; pH 6.8) [mg/mL] | Purity (%) at 8 h ([2]; 50° C., 8 hours) [%] | Purity (%) at 8 h ([2]; 80° C., 8 hours) [%] | Purity (%) at 8 h ([2]; 100° C., 8 hours) [%] | stability assessment of HCl salt ([2]; different temperatures, 8 hours) | initial purity ([2]; stability study, at TO (start)) [%] | Structure (SMILES)
1 | 55.52 | 0.09 | 9.67 | 2.07 | 1.81 | 0.02 |  |  |  |  |  | C=CC(=O)Nc1cc(Nc2nc(-c3ccnc(N4CCn5c(cc6c5CC(C)(C)C6)C4=O)c3CO)cn(C)c2=O)ccc1N1CCN(C2CCOCC2)C[C@@H]1C [Compound 2, N-(5-[[6-(2-[4,4-dimethyl-9-oxo-1,10-diazatricyclo[6.4.0.0^[2,6]]dodeca-2(6),7-dien-10-yl]-3-(hydroxymethyl)pyridin-4-yl)-4-methyl-3-oxopyrazin-2-yl]amino]-2-[(2S)-2-methyl-4-(oxan-4-yl)piperazin-1-yl]phenyl)prop-2-enamide]
2 |  |  |  |  |  |  | 95.7 | 90.1 | 84.7 | not sufficiently stable | 96.5 | C=CC(=O)Nc1cc(Nc2nc(-c3ccnc(N4CCn5c(cc6c5CC(C)(C)C6)C4=O)c3CO)cn(C)c2=O)ccc1N1CCN(C2CCOCC2)C[C@@H]1C.Cl [Compound-2 HCl, N-(5-[[6-(2-[4,4-dimethyl-9-oxo-1,10-diazatricyclo[6.4.0.0^[2,6]]dodeca-2(6),7-dien-10-yl]-3-(hydroxymethyl)pyridin-4-yl)-4-methyl-3-oxopyrazin-2-yl]amino]-2-[(2S)-2-methyl-4-(oxan-4-yl)piperazin-1-yl]phenyl)prop-2-enamide hydrochloride]
